Test results as given in patent US10393730B2, “Energy malnutrition evaluation for liver disease test subject” (OTSUKA PHARMACEUTICAL CO., LTD., priority 2014, dated 2019).

Assays:
[1] = non-fasting period and fasting period, control group versus liver cirrhosis model group, 2 mL/kg i.v., 0-120 minutes
Description: CCl4 (olive oil: CCl4=1:1) was administered subcutaneously to the dorsal regions of male SD rats (10 weeks of age: n=3) in an amount of 2 mL/kg twice a week for 12 weeks, thereby creating liver cirrhosis model rats. With a biogas analysis device (product name: Oxymax, Columbus Instruments), respiratory quotient and energy consumption of untreated rats (control group) and liver cirrhosis model rats (liver cirrhosis model group) were measured and calculated according to the instructions of the device.
Further, both the untreated rats and the liver cirrhosis model rats were fed from 19:00 on Day 1 of the test to 13:00 on Day 3, and were fasted from 13:00 on Day 3 to 13:00 on Day 4, as shown in FIG. 1 shown later. During the non-fasting period, the rats were allowed free access to feed (product name: CRF-1, Oriental Yeast Co., Ltd.). […]
The above-prepared ^13C-palmitic acid-containing composition was individually intravenously administered to the liver cirrhosis model rats and untreated rats prepared in the above Reference Example in an amount of 2 mL/kg (n=3). […] Expired air was collected at time points between before administration (0 minutes) to 120 minutes after the administration of ^13C-palmitic acid-containing composition. Δ^13C(‰) was measured and determined using an expired air analysis mass spectrometer (ABCA: product of Sercon).

[2] = set-up: species or system male SD rats (liver cirrhosis model rats and untreated rats); conditions: rat, in vivo, iv
Description: U-^13C-glucose (MW: 186, Cambridge Isotope Laboratories, Inc.) was dissolved in a physiological saline solution at a concentration of 50 μmol/ml, thereby preparing a ^13C-glucose-containing composition.

| Structure (SMILES) | expired air reaction (Δ^13C(‰)) [1] | expired air reaction (Δ^13C(‰)), day versus night [2] |
| --- | --- | --- |
| CCCCCCCCCCCCCCC[13C](=O)[O-].[Na+] [1-^13C-sodium palmitate] | showed similar transitions in the control group and the liver cirrhosis model group |  |
| OC[C@H]1OC(O)[C@H](O)[C@@H](O)[C@@H]1O (some centres unmarked) [^13C-glucose-containing composition, U-^13C-glucose] |  | a significant difference in the expired air reaction (Δ^13C(‰)) was not observed between day and night |
